# In patent publication US20190369111A1, “MOLECULAR KINETICS EVALUATION METHOD AND SCREENING METHOD” (Tokyo University of Science Foundation, priority 2016, published 2019):
# Target: T1, MDM2 protein (Mus musculus, UniProt P23804)
# T1 construct: administered intraperitoneally to C57BL/6J wild-type mice; from tissue; host or cells: C57BL/6J wild-type mice: liver, kidneys, spleen, heart
# Experiment: Degradation of MDM2 protein in each tissue of mouse after administration, Western blot analysis
# Format: in vivo
# Conditions: 48 hours after administration
# Experimental: TIBC-CANDDY_MLN was dissolved in DMSO immediately before administration, and then dissolved in corn oil (Code No. 25606-55, Nacalai Tesque) so that the concentration of DMSO was 10 vol %, and then a dose of 50 mg/kg body weight or 100 mg/kg body weight was administered intraperitoneally to C57BL/6J wild-type mice (7 to 8 weeks old, male) (CLEA Japan, Inc.) (n=3). As a control, an injection carrier (corn oil containing 10 vol % DMSO) was used. The mice were kept under an environment of ad libitum access to food and water. The mice were dissected under deep anesthesia by Somnopentyl (Kyoritsu Seiyaku Corporation) 48 hours after administration. Abdominal section was performed, and then the liver, kidneys, spleen, and heart were sequentially extracted and flash frozen in liquid nitrogen. Each tissue frozen in liquid nitrogen was stored in a deep freezer at −80° C.
# The frozen tissues (spleen: 0.02 g, other tissues: 0.04 g) were each frozen and triturated, and then 1×TKM tissue lysis buffer (50 mM triethanolamine (pH 7.8), 50 mM KCl, 5 mM MgCl2, 0.25 M sucrose, 1 mM PMSF, protein inhibitors cocktail-EDTA free (Code No. 03969-21, Nacalai Tesque), 1 mM DTT, and 5 μL/mL recombinant RNase inhibitor (40 U/μL, Cat No. 2313A, Lot No. K8402DA, TAKARA Bio)) were added in an amount of 490 μL for the spleen and 980 μL for the others, and dissolved by rotation for 15 minutes (1 rpm, 25° C.). Then, the resultant product was subjected to centrifugation (at 3000 rpm×15 minutes, 4° C.), and the supernatants (each tissue extract) was collected. The concentration of proteins in each tissue extract was quantified with a spectrophotometer using each tissue extract that had been diluted 20 times using DEPC-treated water.
# Each tissue extract collected was subjected to Western blot analysis. An SDS-PAGE gel was prepared using TGX™ FastCast™ Acrylamide Kit, 12% (Bio-Rad). Electrophoresis samples were prepared in a 6×SDS-PAGE sample buffer (62.5 mM Tris-HCl pH 6.8, 2% SDS, 5% 2-mercaptoethanol, 10% glycerol, 0.25% BPB), and placed on a heat block at 95° C. for 5 minutes. The electrophoresis samples prepared were applied at 50 μg/well for detecting GAPDH, and at 100 μg/well for other detection. […]
# After electrophoresis, proteins were transferred to a PVDF membrane (Immobion™-P, Millipore) under conditions of 100 V and 1.5 hours using a tank-type blotting device and a transfer buffer (25 mM Tris-HCl, 195 mM glycine, 0.01% SDS, 15% methanol). […] Subsequently, the membrane was treated with a chemiluminescence reagent Immobilon™ Western (Millipore), and then chemiluminescence was detected using a lumino image analyzer LAS-3000 (FUJIFILM Corporation). Detected bands were quantified with an image processing software ImageJ (NIH).
# T1 sequence (P23804 whole entry): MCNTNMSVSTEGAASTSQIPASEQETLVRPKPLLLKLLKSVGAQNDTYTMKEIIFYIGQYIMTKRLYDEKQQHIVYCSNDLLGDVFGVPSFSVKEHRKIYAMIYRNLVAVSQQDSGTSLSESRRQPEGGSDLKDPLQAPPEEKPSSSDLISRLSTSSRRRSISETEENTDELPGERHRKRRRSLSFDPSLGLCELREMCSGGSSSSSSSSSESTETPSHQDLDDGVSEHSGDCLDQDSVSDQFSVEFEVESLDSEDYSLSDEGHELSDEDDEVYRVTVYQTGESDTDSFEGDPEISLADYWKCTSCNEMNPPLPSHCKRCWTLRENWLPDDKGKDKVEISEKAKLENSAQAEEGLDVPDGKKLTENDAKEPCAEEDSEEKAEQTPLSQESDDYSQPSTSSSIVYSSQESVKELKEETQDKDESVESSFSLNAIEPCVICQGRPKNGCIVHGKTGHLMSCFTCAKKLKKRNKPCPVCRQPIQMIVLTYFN
smiles,measurement,setting,value
CC(C)C[C@H](NC(=O)CNC(=O)c1cc(Cl)ccc1Cl)C(=O)NCCCCCCC(=O)Nc1ccc(C(=O)/C=C/c2ccc(I)cc2)cc1 [TIBC-CANDDY_MLN],amount of MDM2 protein in heart,"intraperitoneal 50 or 100 mg/kg body weight, heart",reduced in a concentration dependent manner
same,amount of MDM2 protein in kidneys,"intraperitoneal 50 or 100 mg/kg body weight, kidneys",reduction of the target was not found
same,amount of MDM2 protein in spleen,"intraperitoneal 50 or 100 mg/kg body weight, spleen",reduced in a concentration dependent manner
same,amount of MDM2 protein in liver,"intraperitoneal, only at a dose of 100 mg/kg body weight, liver",reduced slightly
